Laboratory results taken from PubChem BioAssay (NCI).
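Compound exposure: 48 hours, 5 concentrations, 96-well plates. GI50 marks 50% less growth. TGI is the concentration that stops growth completely.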

Assays:
Assay in all cases: DTP human tumour cell line panel, 48 h
ACHN renal = test system: ACHN renal
M14 melanoma = test system: M14 melanoma
MDA-MB-435 = test system: MDA-MB-435
OVCAR-4 ovarian = test system: OVCAR-4 ovarian
PC-3 prostate = test system: PC-3 prostate
SF-295 CNS = test system: SF-295 CNS
SF-539 CNS = test system: SF-539 CNS
SK-MEL-2 melanoma = test system: SK-MEL-2 melanoma
SW-620 colon = test system: SW-620 colon
U251 CNS = test system: U251 CNS

Row | Structure (SMILES) | TGI (ACHN renal) | TGI (M14 melanoma) | TGI (MDA-MB-435) | TGI (OVCAR-4 ovarian) | TGI (PC-3 prostate) | TGI (SF-295 CNS) | TGI (SF-539 CNS) | TGI (SK-MEL-2 melanoma) | TGI (SW-620 colon) | TGI (U251 CNS) | GI50 (ACHN renal) | GI50 (M14 melanoma) | GI50 (MDA-MB-435) | GI50 (OVCAR-4 ovarian) | GI50 (PC-3 prostate) | GI50 (SF-295 CNS) | GI50 (SF-539 CNS) | GI50 (SK-MEL-2 melanoma) | GI50 (SW-620 colon) | GI50 (U251 CNS)
1 | O=C1OC(OC/C(Br)=C(/Br)COC2OC(=O)C(Cl)=C2Cl)C(Cl)=C1Cl (centres undefined) | 24.8 µM | 17.3 µM | 24.2 µM | 20.1 µM | 30.2 µM | 34.2 µM | 36.7 µM | 44.8 µM | 8.26 µM | 24.2 µM |  |  |  |  |  |  |  |  |  | 
2 | Cc1ccccc1NC(=O)c1cc2ccccc2cc1O | 10.4 µM | > 100 µM | > 100 µM | > 100 µM | 8.81 µM | 24.2 µM | 24.1 µM | 8.05 µM | > 100 µM | > 100 µM | 3.17 µM | 4.08 µM | 3.04 µM | 3.44 µM | 2.7 µM | 3.03 µM | 3.55 µM | 3.33 µM | 3.96 µM | 3.56 µM
3 | O=C1/C(=C\c2ccccc2)c2ccccc2N1/N=C\c1ccccc1 | > 100 µM | > 100 µM |  | > 100 µM |  | > 100 µM | > 100 µM | > 100 µM | > 100 µM | > 100 µM |  |  |  |  |  |  |  |  |  | 
4 | O=S(=O)(N/N=C/c1ccc(Cl)cc1Cl)c1ccccc1 | > 100 µM | > 100 µM |  | > 100 µM |  | > 100 µM | > 100 µM | > 100 µM | > 100 µM | > 100 µM |  |  |  |  |  |  |  |  |  | 
5 | N#CC(C(=O)CCC(=O)Nc1ccc(Cl)c(Cl)c1)c1ccc(Cl)cc1 (centres undefined) | > 100 µM | > 100 µM |  | > 100 µM |  | > 100 µM | > 100 µM | > 100 µM | > 100 µM | > 100 µM |  |  |  |  |  |  |  |  |  | 
6 | COC1(Cc2ccccc2)C(=O)c2ccccc2N1C(C)=O (centres undefined) | > 100 µM | > 100 µM |  | > 100 µM |  | > 100 µM | > 100 µM | > 100 µM | > 100 µM | > 100 µM |  |  |  |  |  |  |  |  |  | 
7 | O=[N+]([O-])c1cc2c(ccc3occc32)o1 | 8.03 µM | 3 µM |  | > 100 µM | 38.4 µM | 5.75 µM | 4.55 µM | 4.56 µM | > 100 µM | 16.4 µM | 0.561 µM | 1.41 µM |  | 27.2 µM | 10.2 µM | 2.04 µM | 2.02 µM | 2.03 µM | 3.17 µM | 3.56 µM
8 | COC(=O)C1=C(c2ccc(Cl)cc2)C(O)N=C(NN)N1 (centres undefined) | > 100 µM | > 100 µM |  | > 100 µM |  | > 100 µM | > 100 µM | > 100 µM | > 100 µM | > 100 µM |  |  |  |  |  |  |  |  |  | 
9 | CCSC(=O)C1(C)OC2CCCCC2C1=O (centres undefined) | > 100 µM | > 100 µM |  | > 100 µM |  |  | > 100 µM | > 100 µM | > 100 µM | > 100 µM |  |  |  |  |  |  |  |  |  | 
10 | CCOC(=O)/C=C1\Oc2ccccc2C1(C)O (centres undefined) | > 100 µM | > 100 µM |  | > 100 µM |  | > 100 µM |  | > 100 µM | > 100 µM | > 100 µM |  |  |  |  |  |  |  |  |  | 
11 | Cc1ccc(Nc2nc(C)c(C(/C=C/c3ccc4c(c3)OCO4)=N/Nc3ccc([N+](=O)[O-])cc3[N+](=O)[O-])s2)c([N+](=O)[O-])c1 | > 100 µM | > 100 µM |  | > 100 µM |  | > 100 µM | > 100 µM | > 100 µM | > 100 µM | > 100 µM |  |  |  |  |  |  |  |  |  | 
12 | O=c1cc(-c2ccc(O)cc2)oc2cc(O)cc(O)c12 | 30.3 µM | > 100 µM |  | > 100 µM |  | 83.4 µM |  | 80.3 µM |  | > 100 µM |  |  |  |  |  |  |  |  |  | 
13 | O=c1[nH]cnc2c1ncn2CCCCO | > 100 µM | > 100 µM |  | > 100 µM |  | > 100 µM | > 100 µM |  | > 100 µM |  |  |  |  |  |  |  |  |  |  | 
14 | CC1=C(C(=O)Nc2ccccc2C)C(c2ccccc2C)C(C(=O)Nc2ccccc2C)=C(C)N1 | 29.5 µM |  |  | 53.9 µM |  | 44.2 µM | > 10 µM | 38.8 µM | 36.2 µM | 40.3 µM |  |  |  |  |  |  |  |  |  | 
15 | COc1cc2c(cc1OCCCCCn1c3ccccc3c3ccccc31)N=C[C@@H]1CCCN1C2=O | 3.34 µM |  | 3.29 µM | 12.6 µM | 7.73 µM | 6.55 µM | 3.37 µM | 3.24 µM |  | 3.19 µM | 1.74 µM |  | 1.69 µM | 3.09 µM | 2.36 µM | 2.15 µM | 1.85 µM | 1.67 µM |  | 1.59 µM
16 | Cn1c2ccccc2c2[nH]c3ccccc3c(=O)c21 | > 100 µM | > 100 µM | > 100 µM |  | > 100 µM | > 100 µM | > 100 µM | > 100 µM | > 100 µM | > 100 µM |  |  |  |  |  |  |  |  |  | 
17 | NS(=O)(=O)c1ccc(NC(=O)c2cccc3c(Nc4ccc(S(N)(=O)=O)cc4)c4ccccc4nc23)cc1 | > 100 µM | > 100 µM |  | 55.6 µM |  | > 100 µM | > 100 µM | 82.3 µM | > 100 µM | > 100 µM |  |  |  |  |  |  |  |  |  | 
18 | CC1CC(=O)c2c(ccc3c2C(=O)c2cccc(O)c2C3=O)C1 (centres undefined) |  | 10.7 µM |  | 25.3 µM |  | 23.2 µM | 29.5 µM | 22.6 µM | 17.4 µM | 26.5 µM |  |  |  |  |  |  |  |  |  | 
19 | CCOC(=O)c1cn(CC)c2cc3c(cc2c1=O)SCS3 | > 100 µM | > 100 µM |  | > 100 µM |  | > 100 µM | > 100 µM | > 100 µM | > 100 µM | > 100 µM |  |  |  |  |  |  |  |  |  | 
20 | O=C1c2ccn(CCCCN(CCO)CCO)c2C(=O)c2c1c(O)c1ccccc1c2O | 57.7 µM |  |  | > 100 µM | > 20.7 µM | 42 µM | > 80.6 µM |  | 14.7 µM |  | 21.6 µM | 2.37 µM | 3.04 µM | 31.7 µM | 3.05 µM | 10.8 µM | 7.88 µM |  | 3.12 µM | 
21 | Cc1cc(Cl)ccc1Nc1nc(C(F)(F)F)ccc1C(=O)Nc1cccc(C(F)(F)F)c1 | 9.01 µM |  | 16.1 µM | 11.3 µM | 15.5 µM | 13.3 µM | 14.7 µM | 13.3 µM | 16.6 µM | 9.72 µM | 2.75 µM |  | 3.76 µM | 3.07 µM | 3.63 µM | 3.24 µM | 3.27 µM | 3.23 µM | 4.23 µM | 3 µM
